# Tested on: PMA-induced release of endogenous TGFα from human PC3 prostate cancer cells
# Test: Example 17: ELISA-based TGFα release assay, PMA-induced, PC3 prostate cancer cells
# Format: cell-based
# Details: 10 μM final concentration, PMA 25 ng/ml, delta Buffer stimulated vs unstimulated = 100% inhibition; for inhibition at 10 µM: Homo sapiens
# Description: In the following study, ELISA-based TGFα release assays were performed to analyze the inhibitory effects of Compounds 1, 2, 3, 4, 5, and 7 on PMA-induced release of endogenous TGFα, from human PC3 prostate cancer cells. The ELISA-based TGFα release assay that was used in this example is described below.
# In brief, on day 1, Nunc black MaxiSorp® 96-well plates (Thermo Fisher Scientific, USA) were coated overnight with 100 μl per well of goat anti-human TGFα capture antibody (provided as part of the DuoSet ELISA kit) at 0.4 μg/ml TBS at 4° C.
# 75,000 PC3 (European Collection of Authenticated Cell Cultures, UK) cells in 100 μl of normal growth medium were seeded in each well of F-bottom 96-well cell culture plates (Corning, USA) and incubated at 37° C., 5% CO2 overnight. On day 2, the capture antibody solution was removed and MaxiSorp® plates were blocked with 300 μl per well of TBS, 1% BSA at room temperature for 5 hours. Meanwhile, cells were washed twice with PBS and pre-incubated in 80 μl of OptiMEM medium with 20 μl per well of OptiMEM medium supplemented with Batimastat (BB94, Abcam, UK) at 50 μM as positive control (for a final concentration of 10 μM in the resulting 100 μl sample volume), compounds of the invention at 50 μM (for a final concentration of 10 μM in the resulting 100 μl sample volume) and in case of Buffer stimulated and unstimulated controls with DMSO (Carl Roth, Germany) at 50 μM (for a final concentration of 10 μM in the resulting 100 μl sample volume) at 37° C., 5% CO2 for 30 minutes. Subsequently, cells (except those for unstimulated controls) were stimulated with 20 μl per well of PMA (Sigma-Aldrich, USA) at 150 ng/ml in OptiMEM for a final concentration of 25 ng/ml at 37° C., 5% CO2 for 2 hours. In parallel, blocking buffer was removed from the MaxiSorp® plates and plates were washed 4 times with 350 μl TBS-T (Carl Roth, Germany) per well on a 96-head plate washer (Tecan Group, Switzerland). To avoid drying-up, 20 μl TBS were added to each well of the MaxiSorp® plates immediately, followed by the transfer of 80 μl cell-free supernatant per sample. Additionally, 100 μl recombinant human TGFα protein (provided as part of the DuoSet ELISA kit) diluted in TBS at defined concentrations were added to the plate as standard references. Thereafter, 100 μl biotinylated goat anti-human TGFα detection antibody (provided as part of the DuoSet ELISA kit) at 37.5 ng/ml in TBS were added per well and, protected from direct light, plates were incubated at room temperature for 2 hours. After 4 times washing with 350 μl TBS-T (Carl Roth, Germany) per well on a 96-head plate washer (Tecan Group, Switzerland) and careful removal of all buffer traces after the fourth cycle, 100 μl streptavidin-AP (R&D Systems, USA) diluted 1:10,000 in TBS were added to each well and, again protected from direct light, plates were incubated at room temperature for 30 minutes. Following another round of 4 times washing with 350 μl TBS-T (Carl Roth, Germany) per well on a 96-head plate washer (Tecan Group, Switzerland) and careful removal of all buffer traces after the fourth cycle, 100 μl AttoPhos substrate solution (Promega, USA) per well was added for incubation in the dark at room temperature for 1 hour. Using an infinite M1000 (Tecan Group, Switzerland) microplate reader, the fluorescence of each well was collected at an excitation wavelength of 435 nm and an emission wavelength of 555 nm.
# The delta between Buffer stimulated and Buffer unstimulated was defined 100% inhibition.
SMILES,inhibition of PMA-induced release of TGFα from PC3 cells (2 hours) [%],"inhibition at 10 µM (PC-3, 2 h) [%]","inhibition at 10 µM (PC-3, 2 hours) [%]"
"CNC(=O)[C@H](Cc1ccccc1)NC(=O)[C@H](CC(C)C)[C@H](CSc1cccs1)C(=O)NO [Batimastat, reference compound]",102.5,104,–
CCC(=O)NCCc1c(/C=C2/C(=O)NC(=O)N(c3ccc(C)cc3C)C2=O)[nH]c2ccccc12 [Compound 1],–,–,25.5
CCOC(=O)c1ccc(Nc2nc3nonc3n3nnnc23)cc1 [Compound 2],–,9.1,–
O=C(c1c(Cl)cccc1Cl)N1CCC(Cc2ccc(F)cc2)CC1 [Compound 3],–,12.5,–
Cc1c(C(=O)NCc2cccs2)sc(=O)n1Cc1ccccc1 [Compound 4],–,14.1,–
Cc1c(C(=O)NCc2cccs2)sc(=O)n1Cc1ccccc1F [Compound 5],–,11.3,–
Cc1c(C(=O)NCc2ccco2)sc(=O)n1Cc1ccccc1F [Compound 7],–,27.3,–

# From patent US20260242359A1, “IRHOM2 INHIBITORS AND USES THEREOF” (NEW YORK SOCIETY FOR THE RELIEF OF THE RUPTURED AND …, priority 2023, published 2026)
